38 molecules from ChEMBL document CHEMBL1129219, “Use of CoMFA in validating the conformation used in designing 4-(1H-benzimidazole-2-carbonyl)piperidines with H1/NK1 receptor antagonist activity” (Bioorg Med Chem Lett, 1997) can be followed below.

For this assay, the target named is Histamine H1 receptor (Homo sapiens, UniProt P35367). Description: Antagonistic activity against histamine H1 receptor. It counts as functional.
Chain of Histamine H1 receptor (P35367 whole entry): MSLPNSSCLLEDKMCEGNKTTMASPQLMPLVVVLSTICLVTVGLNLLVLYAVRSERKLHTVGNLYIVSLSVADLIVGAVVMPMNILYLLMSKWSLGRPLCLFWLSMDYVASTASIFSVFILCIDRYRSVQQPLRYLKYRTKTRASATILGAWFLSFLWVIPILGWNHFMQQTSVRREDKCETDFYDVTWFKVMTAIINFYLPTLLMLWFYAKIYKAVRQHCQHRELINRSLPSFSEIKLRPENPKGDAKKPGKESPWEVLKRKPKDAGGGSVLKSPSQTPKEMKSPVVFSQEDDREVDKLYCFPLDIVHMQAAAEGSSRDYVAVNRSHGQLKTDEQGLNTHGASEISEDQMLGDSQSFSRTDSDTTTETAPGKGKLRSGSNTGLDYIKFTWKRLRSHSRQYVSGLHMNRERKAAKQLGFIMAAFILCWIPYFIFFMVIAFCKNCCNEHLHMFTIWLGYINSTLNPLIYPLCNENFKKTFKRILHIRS
As for `COc1cc(C(=O)N2CCC(CCN3CCC(C(=O)c4nc5ccccc5n4CCN4CCOCC4)CC3)(c3ccc(Cl)c(Cl)c3)C2)cc(OC)c1OC` (stereo not drawn), the IC50 was 0.55 µM.
In the case of `COC(=O)c1ccccc1OCCCn1c(C(=O)C2CCN(CCC3(c4ccccc4)CCN(C(=O)c4cc(OC)c(OC)c(OC)c4)C3)CC2)nc2ccccc21` (stereo not drawn), the IC50 was 1 µM.
Consider `COc1ccc(C2(CCN3CCC(C(=O)c4nc5ccccc5n4Cc4ccc(F)cc4)CC3)CCN(C(=O)c3cc(OC)c(OC)c(OC)c3)C2)cc1OC` (stereo not drawn), for which the midpoint of inhibition, the IC50, lay at 0.331 µM. This IC50 is about 3-fold lower than that of the molecule before.
The molecule `COc1cc(C(=O)N2CCC(CCN3CCC(C(=O)c4nc5ccccc5n4CCCCOc4ccccc4C(=O)O)CC3)(c3ccccc3)C2)cc(OC)c1OC` (stereo not drawn) showed a concentration for half-maximal inhibition (IC50) of 9.12 µM.
Consider `COc1cc(C(=O)N2CCC(CCN3CCC(C(=O)c4nc5ccccc5n4Cc4ccc(F)cc4)CC3)(c3ccc(C(F)(F)F)cc3)C2)cc(OC)c1OC` (stereo not drawn), for which the IC50 was 0.468 µM.
For `CCOCCn1c(C(=O)C2CCN(CCC3(c4ccccc4)CCN(C(=O)c4cc(OC)c(OC)c(OC)c4)C3)CC2)nc2ccccc21` (stereo not drawn), 0.38 µM corresponded to half-maximal inhibition (IC50).
On to `COc1cc(C(=O)N2CCC(CCN3CCC(C(=O)c4nc5ccccc5n4CCOCc4ccco4)CC3)(c3ccccc3)C2)cc(OC)c1OC` (stereo not drawn), for which the IC50 was 0.447 µM.
Turning to `O=C(c1nc2ccccc2n1Cc1ccc(F)cc1)C1CCN(CCC2(c3ccc4c(c3)OCO4)CCN(C(=O)c3ccc(Cl)cc3Cl)C2)CC1` (stereo not drawn), the IC50 is 0.129 µM.
`COc1cc(C(=O)N2CCC(CCN3CCC(C(=O)c4nc5ccccc5n4Cc4ccccn4)CC3)(c3ccc(F)cc3)C2)cc(OC)c1OC` (stereo not drawn) gave an IC50 of 0.562 µM.
For the molecule `COc1cc(C(=O)N2CCC(CCN3CCC(C(=O)c4nc5ccccc5n4Cc4ccc(F)cc4)CC3)(c3ccc(Cl)c(Cl)c3)C2)cc(OC)c1OC` (stereo not drawn), the IC50 was 0.282 µM. Compared with the last molecule, the IC50 is about 2-fold lower.
With `COc1cc(C(=O)N2CCC(CCN3CCC(C(=O)c4nc5ccccc5n4CCCC(=O)O)CC3)(c3ccc(Cl)c(Cl)c3)C2)cc(OC)c1OC` (stereo not drawn) the figure was 10 µM; with `COc1cc(C(=O)N2CCC(CCN3CCC(C(=O)c4nc5ccccc5[nH]4)CC3)(c3ccc(Cl)c(Cl)c3)C2)cc(OC)c1OC` (stereo not drawn), 0.407 µM; with `COc1ccc(C2(CCN3CCC(C(=O)c4nc5ccccc5n4Cc4ccc(F)cc4)CC3)CCN(C(=O)c3ccccc3)C2)cc1OC` (stereo not drawn), 0.24 µM.
The result for `COc1cc(C(=O)N2CCC(CCN3CCC(C(=O)c4nc5ccccc5n4Cc4ccccn4)CC3)(c3ccc(Cl)c(Cl)c3)C2)cc(OC)c1OC` (stereo not drawn) reads 0.437 µM; that for `COc1cc(C(=O)N2CCC(CCN3CCC(C(=O)c4nc5ccccc5n4Cc4ccc(F)cc4)CC3)(c3ccc(F)cc3F)C2)cc(OC)c1OC` (stereo not drawn), 0.437 µM.
As to `COc1ccc(C2(CCN3CCC(C(=O)c4nc5ccccc5[nH]4)CC3)CCN(C(=O)c3cc(OC)c(OC)c(OC)c3)C2)cc1OC` (stereo not drawn), the 50% inhibitory concentration (IC50) was 1.95 µM.
With `COc1cc(C(=O)N2CCC(CCN3CCC(C(=O)c4nc5ccccc5n4Cc4ccc(F)cc4)CC3)(c3ccc4c(c3)OCO4)C2)cc(OC)c1OC` (stereo not drawn) the figure was 0.204 µM; with `COc1ccc(CCN2CCC(C(=O)c3nc4ccccc4n3Cc3ccc(F)cc3)CC2)cc1`, 0.0589 µM; with `CCOCCn1c(C(=O)C2CCN(CCC3(c4ccc(F)cc4)CCN(Cc4cc(OC)c(OC)c(OC)c4)C3=O)CC2)nc2ccccc21` (stereo not drawn), 0.251 µM.
`CC(C)Oc1cccc(CC(=O)N2CCC(CCN3CCC(C(=O)c4nc5ccccc5n4Cc4ccc(F)cc4)CC3)(c3ccc4c(c3)OCO4)C2)c1` (stereo not drawn) had an IC50 of 0.251 µM.
With `COc1cc(C(=O)N2CCC(CCN3CCC(C(=O)c4nc5ccccc5n4Cc4ccc(F)cc4)CC3)(c3ccccc3)C2)cc(OC)c1OC` (stereo not drawn), the IC50 is 0.234 µM.
With `CCOc1cc(C(=O)N2CCC(CCN3CCC(C(=O)c4nc5ccccc5n4Cc4ccc(F)cc4)CC3)(c3ccc(OC)c(OC)c3)C2)cc(OCC)c1OCC` (stereo not drawn) the figure was 0.158 µM.
As to `COc1cc(C(=O)N2CCCC(CCN3CCC(C(=O)c4nc5ccccc5n4Cc4ccc(F)cc4)CC3)(c3ccc(Cl)c(Cl)c3)C2)cc(OC)c1OC` (stereo not drawn), it took 0.214 µM to reach half-maximal inhibition (IC50).
`COc1cc(C(=O)N2CCC(CCN3CCC(C(=O)c4nc5ccccc5n4Cc4ccc(C(=O)O)cc4)CC3)(c3ccccc3)C2)cc(OC)c1OC` (stereo not drawn) had an IC50 of 33.9 µM.
`CCOCCn1c(C(=O)C2CCN(CCC3(c4ccc(Cl)c(Cl)c4)CCN(C(=O)c4cc(OC)c(OC)c(OC)c4)C3)CC2)nc2ccccc21` (stereo not drawn) showed an IC50 of 0.339 µM.
The molecule `COc1cc(C(=O)N2CCC(CCN3CCC(C(=O)c4nc5ccccc5n4Cc4ccccn4)CC3)(c3ccccc3)C2)cc(OC)c1OC` (stereo not drawn) gave an IC50 of 0.363 µM.
With `COc1cc(C(=O)N2CCC(CCN3CCC(C(=O)c4nc5ccccc5n4Cc4cccnc4)CC3)(c3ccccc3)C2)cc(OC)c1OC` (stereo not drawn) the figure was 0.417 µM; with `COC(=O)c1ccc(Cn2c(C(=O)C3CCN(CCC4(c5ccc(OC)c(OC)c5)CCN(C(=O)c5cc(OC)c(OC)c(OC)c5)C4)CC3)nc3ccccc32)cc1` (stereo not drawn), 0.955 µM.
Regarding `COC(=O)c1ccc(Cn2c(C(=O)C3CCN(CCC4(c5ccccc5)CCN(C(=O)c5cc(OC)c(OC)c(OC)c5)C4)CC3)nc3ccccc32)cc1` (stereo not drawn), it took 1.17 µM to reach half-maximal inhibition (IC50).
Consider `COc1cc(C(=O)N2CCC(CCN3CCC(C(=O)c4nc5ccccc5n4Cc4ccncc4)CC3)(c3ccccc3)C2)cc(OC)c1OC` (stereo not drawn), for which the IC50 is 0.282 µM.
With `COc1cc(C(=O)N2CCC(CCN3CCC(C(=O)c4nc5ccccc5[nH]4)CC3)(c3ccccc3)C2)cc(OC)c1OC` (stereo not drawn) the figure was 0.501 µM; with `COc1ccc(C2(CCN3CCC(C(=O)c4nc5ccccc5n4Cc4ccccn4)CC3)CCN(C(=O)c3cc(OC)c(OC)c(OC)c3)C2)cc1` (stereo not drawn), 0.501 µM; with `COc1ccc(CCN2CCC(=Nc3nc4ccccc4n3Cc3ccc(F)cc3)CC2)cc1`, 0.0468 µM.
With `COc1cc(C(=O)N2CCC(CCN3CCC(C(=O)c4nc5ccccc5n4Cc4ccco4)CC3)(c3ccccc3)C2)cc(OC)c1OC` (stereo not drawn) the figure was 0.295 µM; with `CCOC(=O)CCCn1c(C(=O)C2CCN(CCC3(c4ccc(Cl)c(Cl)c4)CCN(C(=O)c4cc(OC)c(OC)c(OC)c4)C3)CC2)nc2ccccc21` (stereo not drawn), 0.955 µM.
As to `CCOCCn1c(C(=O)C2CCN(CCC3(c4ccc(OC)c(OC)c4)CCN(C(=O)c4cc(OC)c(OC)c(OC)c4)C3)CC2)nc2ccccc21` (stereo not drawn), 0.631 µM corresponded to half-maximal inhibition (IC50).
With `COc1ccc(C(=O)N2CCC(CCN3CCC(C(=O)c4nc5ccccc5n4Cc4ccc(F)cc4)CC3)(c3ccc4c(c3)OCO4)C2)c(OC)c1OC` (stereo not drawn) the figure was 0.257 µM.
With `COc1ccc(C2(CCN3CCC(C(=O)c4nc5ccccc5n4Cc4ccc(C(=O)O)cc4)CC3)CCN(C(=O)c3cc(OC)c(OC)c(OC)c3)C2)cc1OC` (stereo not drawn) the figure was 27.5 µM.
